Values quoted from earlier work as cited in patent publication US20080038364A1, “Methods of processing body parts for surgery” (priority 2006, published 2008).
Like-named read-outs stand apart in the source and are kept apart here.

How the values were obtained:
[1] = test system: bacteria, viruses and other microorganisms; conditions: compared with chlorine

SMILES: O=[O+][O-] [ozone]
- CT for Giardia Inactivation (Giardia; 0.5 log inactivation, 5 °C): 0.32 CT units
- CT for Giardia Inactivation (Giardia; 0.5 log inactivation, 10 °C): 0.23 CT units
- CT for Giardia Inactivation (Giardia; 0.5 log inactivation, 15 °C): 0.16 CT units
- CT for Giardia Inactivation (Giardia; 0.5 log inactivation, 20 °C): 0.12 CT units
- CT for Giardia Inactivation (Giardia; 0.5 log inactivation, 25 °C): 0.08 CT units
- CT for Giardia Inactivation (Giardia; 1.0 log inactivation, 5 °C): 0.63 CT units
- CT for Giardia Inactivation (Giardia; 1.0 log inactivation, 10 °C): 0.48 CT units
- CT for Giardia Inactivation (Giardia; 1.0 log inactivation, 15 °C): 0.32 CT units
- CT for Giardia Inactivation (Giardia; 1.0 log inactivation, 20 °C): 0.24 CT units
- CT for Giardia Inactivation (Giardia; 1.0 log inactivation, 25 °C): 0.16 CT units
- CT for Giardia Inactivation (Giardia; 1.5 log inactivation, 5 °C): 0.95 CT units
- CT for Giardia Inactivation (Giardia; 1.5 log inactivation, 10 °C): 0.72 CT units
- CT for Giardia Inactivation (Giardia; 1.5 log inactivation, 15 °C): 0.48 CT units
- CT for Giardia Inactivation (Giardia; 1.5 log inactivation, 20 °C): 0.36 CT units
- CT for Giardia Inactivation (Giardia; 1.5 log inactivation, 25 °C): 0.24 CT units
- CT for Giardia Inactivation (Giardia; 2.0 log inactivation, 5 °C): 1.3 CT units
- CT for Giardia Inactivation (Giardia; 2.0 log inactivation, 10 °C): 0.95 CT units
- CT for Giardia Inactivation (Giardia; 2.0 log inactivation, 15 °C): 0.63 CT units
- CT for Giardia Inactivation (Giardia; 2.0 log inactivation, 20 °C): 0.48 CT units
- CT for Giardia Inactivation (Giardia; 2.0 log inactivation, 25 °C): 0.32 CT units
- CT for Giardia Inactivation (Giardia; 2.5 log inactivation, 5 °C): 1.6 CT units
- CT for Giardia Inactivation (Giardia; 2.5 log inactivation, 10 °C): 1.2 CT units
- CT for Giardia Inactivation (Giardia; 2.5 log inactivation, 15 °C): 0.79 CT units
- CT for Giardia Inactivation (Giardia; 2.5 log inactivation, 20 °C): 0.60 CT units
- CT for Giardia Inactivation (Giardia; 2.5 log inactivation, 25 °C): 0.40 CT units
- CT for Giardia Inactivation (Giardia; 3.0 log inactivation, 5 °C): 1.9 CT units
- CT for Giardia Inactivation (Giardia; 3.0 log inactivation, 10 °C): 1.4 CT units
- CT for Giardia Inactivation (Giardia; 3.0 log inactivation, 15 °C): 0.95 CT units
- CT for Giardia Inactivation (Giardia; 3.0 log inactivation, 20 °C): 0.72 CT units
- CT for Giardia Inactivation (Giardia; 3.0 log inactivation, 25 °C): 0.48 CT units
- CT for Virus Inactivation (virus organisms; 2.0 log inactivation, 5 °C): 0.6 CT units
- CT for Virus Inactivation (virus organisms; 2.0 log inactivation, 10 °C): 0.5 CT units
- CT for Virus Inactivation (virus organisms; 2.0 log inactivation, 15 °C): 0.3 CT units
- CT for Virus Inactivation (virus organisms; 2.0 log inactivation, 20 °C): 0.25 CT units
- CT for Virus Inactivation (virus organisms; 2.0 log inactivation, 25 °C): 0.15 CT units
- CT for Virus Inactivation (virus organisms; 3.0 log inactivation, 5 °C): 0.9 CT units
- CT for Virus Inactivation (virus organisms; 3.0 log inactivation, 10 °C): 0.8 CT units
- CT for Virus Inactivation (virus organisms; 3.0 log inactivation, 15 °C): 0.5 CT units
- CT for Virus Inactivation (virus organisms; 3.0 log inactivation, 20 °C): 0.4 CT units
- CT for Virus Inactivation (virus organisms; 3.0 log inactivation, 25 °C): 0.25 CT units
- CT for Virus Inactivation (virus organisms; 4.0 log inactivation, 5 °C): 1.2 CT units
- CT for Virus Inactivation (virus organisms; 4.0 log inactivation, 10 °C): 1.0 CT units
- CT for Virus Inactivation (virus organisms; 4.0 log inactivation, 15 °C): 0.6 CT units
- CT for Virus Inactivation (virus organisms; 4.0 log inactivation, 20 °C): 0.5 CT units
- CT for Virus Inactivation (virus organisms; 4.0 log inactivation, 25 °C): 0.3 CT units
- disinfectant power relative to chlorine [1]: 10 times
- half-life of ozone gas breaking down to oxygen: 20 min
